Converted amounts (≈) assume the structure as drawn. Like-named read-outs stand apart in the source and are kept apart here.
How the values were obtained:
[1] = system: M. tuberculosis standard strain Mtb H37Rv; experiment: MIC determination against mycobacteria (resazurin, Middlebrook 7H9); assay type: cell-based, Mycobacterium tuberculosis
E. coli K12 tolC::Tn10 = experiment: General antimicrobial activity assay (CLSI broth microdilution); assay type: cell-based, Escherichia coli
Method: (§1) Whole-cell antimicrobial activity was determined by broth microdilution using the Clinical and Laboratory Standards Institute (CLSI) recommended procedure, Document M7-A7, “Methods for Dilution Susceptibility Tests for Bacteria that Grow Aerobically”.

E. coli K12 = experiment: as above; assay type: cell-based, Escherichia coli
Method: as §1

A. baumannii ATCC 17978 = experiment: General antimicrobial activity assay (CLSI broth microdilution); assay type: cell-based, Acinetobacter baumannii
Method: as §1

P. aeruginosa PA01 = experiment: as above; assay type: cell-based, Pseudomonas aeruginosa
Method: as §1

[2] = system: M. tuberculosis clinical isolates; experiment: MIC against clinical strains (BACTEC MGIT 960 System); assay type: cell-based; settings: Mycobacterium tuberculosis
[3] = Mycobacterium tuberculosis, H37RV, read-out: Mtb H37Rv MIC (B)
[4] = HepG2 Tox50 (A) / Mtb H37Rv MIC (B)
[5] = Mycobacterium tuberculosis, H37RV; read-out: Mtb H37Rv MIC (B)

NCC1OB2OCCOc3cccc1c32 (racemic) [Example C2-H, reference compound]
MIC [1, 3]: 1.88 µM (≈ 0.385 µg/mL) | MIC: E. coli K12 tolC::Tn10 (E. coli K12 tolC::Tn10): 4 µg/mL (≈ 19.5 µM) | MIC: E. coli K12 (E. coli K12): 2 µg/mL (≈ 9.76 µM) | Selectivity Index (A/B) (HepG2 cells; [4]): >26 | HepG2 cell 48 h Tox50 (A) (HepG2 cells; human): >50 µM | MIC: A. baumannii ATCC 17978 (A. baumannii ATCC 17978): 2 µg/mL (≈ 9.76 µM) | MIC: P. aeruginosa PA01 (P. aeruginosa PA01): 2 µg/mL (≈ 9.76 µM)

C[C@@]1(CO)COc2ccc(Cl)c3c2B(OC3CN)O1 (single isomer, unassigned) [Example 14, ((2S, 8R or 2R, 8S)-2-(aminomethyl)-3-chloro-8-methyl-7,8-dihydro-2H-1,6,9-trioxa-9a-borabenzo[cd]azulen-8-yl)methanol]
MIC [1, 3]: 1.25 µM (≈ 0.354 µg/mL) | Selectivity Index (A/B) (HepG2 cells; [4]): >4 | HepG2 cell 48 h Tox50 (A) (HepG2 cells; human): >50 µM

Cl.NCC1OB2OCCOc3ccc(Br)c1c32 (stereo not shown) [Example 1, 3-bromo-7,8-dihydro-2H-1,6,9-trioxa-9a-borabenzo[cd]azulen-2-yl)methanamine Hydrochloride]
MIC [1, 3]: 0.18 µM

Cl.NCC1OB2OCCOc3ccc(Br)c1c32 (stereo not shown) [Example 1]
MIC: E. coli K12 tolC::Tn10 (E. coli K12 tolC::Tn10): >64 µg/mL | MIC: E. coli K12 (E. coli K12): >64 µg/mL | HepG2 cell 48 h Tox50 (A) (HepG2 cells): >50 µM | Selectivity Index (A/B) (HepG2 cells; hydrochloride): >277 | MIC: A. baumannii ATCC 17978 (A. baumannii ATCC 17978): >64 µg/mL | MIC: P. aeruginosa PA01 (P. aeruginosa PA01): >64 µg/mL

Cl.NCC1OB2OCCOc3ccc(Cl)c1c32 (stereo not shown) [Example 3, 3-chloro-7,8-dihydro-2H-1,6,9-trioxa-9a-borabenzo[cd]azulen-2-yl)methanamine hydrochloride]
MIC [1, 3]: 0.47 µM

Cl.NCC1OB2OCCOc3ccc(Cl)c1c32 (stereo not shown) [Example 3]
MIC: E. coli K12 tolC::Tn10 (E. coli K12 tolC::Tn10): >64 µg/mL | MIC: E. coli K12 (E. coli K12): >64 µg/mL | HepG2 cell 48 h Tox50 (A) (HepG2 cells): >50 µM | Selectivity Index (A/B) (HepG2 cells; hydrochloride): >106 | MIC: A. baumannii ATCC 17978 (A. baumannii ATCC 17978): >64 µg/mL | MIC: P. aeruginosa PA01 (P. aeruginosa PA01): >64 µg/mL

Cl.NCC1OB2OCCOc3ccc(F)c1c32 (stereo not shown) [Example 5, (3-fluoro-7,8-dihydro-2H-1,6,9-trioxa-9a-borabenzo[cd]azulen-2-yl)methanamine hydrochloride)]
MIC [1, 3]: 0.6 µM

Cl.NCC1OB2OCCOc3ccc(F)c1c32 (stereo not shown) [Example 5]
MIC: E. coli K12 tolC::Tn10 (E. coli K12 tolC::Tn10): 64 µg/mL | MIC: E. coli K12 (E. coli K12): 32 µg/mL | MIC: A. baumannii ATCC 17978 (A. baumannii ATCC 17978): >64 µg/mL | MIC: P. aeruginosa PA01 (P. aeruginosa PA01): 4 µg/mL

Cl.NC[C@H]1OB2OCCOc3ccc(I)c1c32 [Example 6, (S)-(3-iodo-7,8-dihydro-2H-1,6,9-trioxa-9a-borabenzo[cd]azulen-2-yl)methanamine hydrochloride]
MIC [1, 3]: 0.3 µM

CC1COc2ccc(Cl)c3c2B(O1)OC3CN.Cl (stereo not shown) [Example 7, (3-chloro-8-methyl-7,8-dihydro-2H-1,6,9-trioxa-9a-borabenzo[cd]azulen-2-yl)methanamine Hydrochloride]
MIC [1, 3]: 0.2 µM | MIC: E. coli K12 tolC::Tn10 (E. coli K12 tolC::Tn10): >64 µg/mL | MIC: E. coli K12 (E. coli K12): >64 µg/mL | Selectivity Index (A/B) (HepG2 cells): >250 | HepG2 cell 48 h Tox50 (A) (HepG2 cells): >50 µM | MIC: A. baumannii ATCC 17978 (A. baumannii ATCC 17978): >64 µg/mL | MIC: P. aeruginosa PA01 (P. aeruginosa PA01): >64 µg/mL

CC1COc2ccc(Br)c3c2B(O1)OC3CN.Cl (stereo not shown) [Example 8, (3-bromo-8-methyl-7,8-dihydro-2H-1,6,9-trioxa-9a-borabenzo[cd]azulen-2-yl)methanamine hydrochloride]
MIC [1, 3]: 0.3 µM | MIC: E. coli K12 tolC::Tn10 (E. coli K12 tolC::Tn10): >64 µg/mL | MIC: E. coli K12 (E. coli K12): >64 µg/mL | Selectivity Index (A/B) (HepG2 cells): >167 | HepG2 cell 48 h Tox50 (A) (HepG2 cells): >50 µM | MIC: A. baumannii ATCC 17978 (A. baumannii ATCC 17978): >64 µg/mL | MIC: P. aeruginosa PA01 (P. aeruginosa PA01): >64 µg/mL

CC1(C)COc2ccc(Br)c3c2B(O[C@@H]3CN)O1.Cl [Example 10, (S)-(3-bromo-8,8-dimethyl-7,8-dihydro-2H-1,6,9-trioxa-9a-borabenzo[cd]azulen-2-yl)methanamine Hydrochloride]
MIC [1, 3]: 0.16 µM | MIC: E. coli K12 tolC::Tn10 (E. coli K12 tolC::Tn10): >64 µg/mL | MIC: E. coli K12 (E. coli K12): >64 µg/mL | MIC: A. baumannii ATCC 17978 (A. baumannii ATCC 17978): >64 µg/mL | MIC: P. aeruginosa PA01 (P. aeruginosa PA01): >64 µg/mL

CC1(C)COc2ccc(Cl)c3c2B(O[C@@H]3CN)O1.Cl [Example 12, (S)-(3-chloro-8,8-dimethyl-7,8-dihydro-2H-1,6,9-trioxa-9a-borabenzo[cd]azulen-2-yl)methanamine Hydrochloride]
MIC [1, 3]: 0.08 µM | MIC: E. coli K12 tolC::Tn10 (E. coli K12 tolC::Tn10): >64 µg/mL | MIC: E. coli K12 (E. coli K12): >64 µg/mL | MIC: A. baumannii ATCC 17978 (A. baumannii ATCC 17978): >64 µg/mL | MIC: P. aeruginosa PA01 (P. aeruginosa PA01): >64 µg/mL

Cl.NC[C@H]1OB2O[C@H](CO)COc3ccc(F)c1c32 [Example 13, ((2S,8R)-2-(aminomethyl)-3-fluoro-7,8-dihydro-2H-1,6,9-trioxa-9a-borabenzo[cd]azulen-8-yl)methanol Hydrochloride]
MIC [1, 3]: 0.55 µM | Selectivity Index (A/B) (HepG2 cells): >10 | HepG2 cell 48 h Tox50 (A) (HepG2 cells): >50 µM

C[C@]1(CO)COc2ccc(Cl)c3c2B(OC3CN)O1 (stereo partly drawn) [Example 15, ((2S, 8S, or 2R, 8R)-2-(aminomethyl)-3-chloro-8-methyl-7,8-dihydro-2H-1,6,9-trioxa-9a-borabenzo[cd]azulen-8-yl)methanol]
MIC [1, 3]: 0.93 µM (≈ 0.264 µg/mL) | Selectivity Index (A/B) (HepG2 cells; [4]): >50 | HepG2 cell 48 h Tox50 (A) (HepG2 cells; human): >50 µM

C[C@@]1(CO)COc2ccc(Br)c3c2B(OC3CN)O1 (stereo partly drawn) [Example 16, ((2S, 8R, or 2R, 8S)-2-(aminomethyl)-3-bromo-8-methyl-7,8-dihydro-2H-1,6,9-trioxa-9a-borabenzo[cd]azulen-8-yl)methanol]
MIC [1, 3]: 1.25 µM (≈ 0.41 µg/mL) | Selectivity Index (A/B) (HepG2 cells; [4]): >40 | HepG2 cell 48 h Tox50 (A) (HepG2 cells; human): >50 µM

c1cc2c3c(c1)OCCOB3OC2 [Example C1-H, reference compound]
MIC [1, 5]: 31 µM (≈ 5.46 µg/mL)

NCCOc1cccc2c1B(O)OC2 [Example C3-H, reference compound]
MIC [1, 5]: 62 µM (≈ 12 µg/mL) | HepG2 cell 48 h Tox50 (A) (HepG2 cells): >50 µM | Selectivity Index (A/B) (HepG2 cells; [4]): >0.8

CCOc1cccc2c1B(O)O[C@@H]2CN [Example C5-H, reference compound]
MIC [1, 5]: 0.6 µM (≈ 0.124 µg/mL) | HepG2 cell 48 h Tox50 (A) (HepG2 cells): 1.8 µM | Selectivity Index (A/B) (HepG2 cells; [4]): 3

CC1COc2c(Cl)cc(Cl)c3c2B(O1)OC3CN (stereo not shown) [Example C7-Cl2, reference compound]
MIC [1, 3]: 2.5 µM (≈ 0.72 µg/mL) | Selectivity Index (A/B) (HepG2 cells; [4]): >20 | HepG2 cell 48 h Tox50 (A) (HepG2 cells; human): >50 µM

CC1(C)COc2c(Cl)ccc3c2B(OC3CN)O1 (stereo not shown) [Example C8-Cl, reference compound]
MIC [1, 3]: > 5 µM | Selectivity Index (A/B) (HepG2 cells; [4]): 10 | HepG2 cell 48 h Tox50 (A) (HepG2 cells; human): >50 µM

CC1(C)COB2OC(CN)c3c(Cl)ccc(c32)O1 (stereo not shown) [Example C9-Cl, reference compound]
MIC [1, 3]: 5 µM (≈ 1.34 µg/mL) | Selectivity Index (A/B) (HepG2 cells; [4]): >10 | HepG2 cell 48 h Tox50 (A) (HepG2 cells; human): >50 µM

CC1(C)COB2OC(CN)c3cccc(c32)O1 (stereo not shown) [Example C10-H, reference compound]
MIC [1, 3]: > 5 µM | Selectivity Index (A/B) (HepG2 cells; [4]): 10 | HepG2 cell 48 h Tox50 (A) (HepG2 cells; human): >50 µM

NC[C@H]1OB2OCCOc3c(Cl)cc(Cl)c1c32 [Example C14-Cl2, reference compound]
MIC [1, 3]: > 5 µM | Selectivity Index (A/B) (HepG2 cells; [4]): >10 | HepG2 cell 48 h Tox50 (A) (HepG2 cells; human): >50 µM

NC[C@H]1OB2OCCOc3ccc(Cl)c1c32 [Example G4-Cl]
MIC ([2]; for all of but 1 of the 40 clinical isolate strains tested): < 1 µM | MIC ([2]; read-out: measured MIC (breakdown), for 1 strain of 97 clinical isolates): ≤ 0.2 µM | MIC ([2]; read-out: measured MIC (breakdown), for 3 strains of 97 clinical isolates): 0.31 µM (≈ 0.0742 µg/mL) | MIC ([2]; read-out: measured MIC (breakdown), for 8 strains of 97 clinical isolates (first group)): 0.04 µM (≈ 0.00958 µg/mL) | MIC ([2]; read-out: measured MIC (breakdown), for 8 strains of 97 clinical isolates (second group)): 0.16 µM (≈ 0.0383 µg/mL) | MIC ([2]; read-out: measured MIC (breakdown), for 76 strains of 97 clinical isolates): 0.08 µM (≈ 0.0192 µg/mL)
